Experimental data taken from patent EP2769723A1, “Compounds for use in inhibiting HIV capsid assembly” (priority 2013, dated 2014).

Each compound was assayed against T1, CA (Human immunodeficiency virus type 1 group M subtype B, UniProt P12493) (assay: ALPHA screen (AlphaScreen): inhibition of CAI binding to CA). Details: CAI-biotin peptide / CA-GST; compounds screened at 0.5-100 µM; read-out: α screen IC50.
T1 construct: a fusion protein of CA with glutathione-S-transferase (CA-GST)
Set-up: species or system HIV-1
Procedure: The AlphaScreen experiments are performed using Perkin Elmer Enspire plate reader in white 96-well ProxiPlates and PBS supplemented with 0.05% Tween20, 2mM DTT, 2% DMSO. First, Streptavidin-coated Donor beads are used to capture the CAI-biotin peptide. In the other solution, a fusion protein of CA with glutathione-S-transferase (CA-GST) is mixed with GSH Acceptor beads. Both mixtures were incubated and then mixed together. To test the ability of prepared organic compounds to inhibit the CAI binding to CA, they are screened at concentrations between 0.5-100 µM and IC50 values are calculated from the influenced signals.
Upon illumination by laser at 680 nm, Donor beads containing the photosensitizer phthalocyanine convert ambient oxygen to an excited form of singlet oxygen ^1O2. Singlet oxygen can within its half-life of ~ 4 µs diffuse approximately 200 nm in solution. If an Acceptor bead is within that proximity, which is mostly upon CA:CAI interaction, energy is transferred from the singlet oxygen to thioxene derivates within the Acceptor and signal at 520 - 620 nm is emitted.
Compound `Clc1ccc(-c2nc(Nc3ccc4[nH]nnc4c3)c3ccccc3n2)cc1` [AMR.3 71] has an IC50 of 5 µM.
`c1cncc(-c2nc(NCCCn3ccnc3)c3ccccc3n2)c1` [AMR.322] showed an IC50 of over 200 µM.
`COc1ccc(Nc2nc(-c3cccnc3)nc3ccccc23)cc1OC` [AMR.328] showed an IC50 of 110 µM.
Work on `Fc1ccc(Nc2nc(-c3cccnc3)nc3ccccc23)cc1` [AMR.331] yielded an IC50 of 44.4 µM.
Compound `Cc1cccc(Nc2nc(-c3cccnc3)nc3ccccc23)c1C` [AMR.334] has an IC50 of 43.2 µM.
For `O=[N+]([O-])c1ccc(F)c(Nc2nc(-c3cccnc3)nc3ccccc23)c1` [AMR.335], the IC50 was 6.5 µM.
With `Cc1ccc(S(=O)(=O)NNc2nc(-c3cccnc3)nc3ccccc23)cc1` [AMR.336] the IC50 was 119 µM.
`c1cncc(-c2nc(Nc3ccc(-n4ccnc4)cc3)c3ccccc3n2)c1` [AMR.341] gave an IC50 of 31.5 µM.
In the case of `Clc1ccc(Cl)c(Nc2nc(-c3cccnc3)nc3ccccc23)c1` [AMR.345], the IC50 is reported as 22 µM.
With `c1ccc2c(NCCCn3ccnc3)nc(-c3ccncc3)nc2c1` [AMR.347] the IC50 was over 200 µM.
`O=[N+]([O-])c1ccc(F)c(Nc2nc(-c3ccncc3)nc3ccccc23)c1` [AMR.348] gave an IC50 of 7.2 µM.
With `COc1ccc(Nc2nc(-c3ccncc3)nc3ccccc23)cc1OC` [AMR.350] the IC50 was over 200 µM.
In the case of `CN(C)c1ccc(Nc2nc(-c3ccncc3)nc3ccccc23)cc1` [AMR.351], the IC50 is reported as 15.4 µM.
For `Clc1ccc(Cl)c(Nc2nc(-c3ccncc3)nc3ccccc23)c1` [AMR.352], the IC50 was 191 µM.
With `Fc1ccc(Nc2nc(-c3ccncc3)nc3ccccc23)cc1` [AMR.353] the IC50 was over 200 µM.
`Cc1cccc(Nc2nc(-c3ccncc3)nc3ccccc23)c1C` [AMR.354] gave an IC50 of 165 µM.
Work on `Cc1ccnc(Nc2nc(-c3ccncc3)nc3ccccc23)c1` [AMR.355] yielded an IC50 of 25 µM.
`Cc1ccc(S(=O)(=O)NNc2nc(-c3ccncc3)nc3ccccc23)cc1` [AMR.356] gave an IC50 of 156 µM.
Compound `c1ccc2c(Nc3ccc4[nH]nnc4c3)nc(-c3ccncc3)nc2c1` [AMR.358] has an IC50 of 5 µM.
Compound `c1ccc2c(Nc3ccc(-n4ccnc4)cc3)nc(-c3ccncc3)nc2c1` [AMR.359] has an IC50 of 37.5 µM.
In the case of `CCOC(=O)c1ccc(Nc2nc(-c3ccc(Cl)cc3)nc3ccccc23)cc1` [AMR.361], the IC50 is reported as over 200 µM.
With `Clc1ccc(-c2nc(Nc3cc(Cl)ccc3Cl)c3ccccc3n2)cc1` [AMR.362] the IC50 was over 200 µM.
For `COc1ccc(Nc2nc(-c3ccc(Cl)cc3)nc3ccccc23)cc1OC` [AMR.363], the IC50 was 54.8 µM.
Compound `Fc1ccc(Nc2nc(-c3ccc(Cl)cc3)nc3ccccc23)cc1` [AMR.364] has an IC50 of over 200 µM.
Compound `Cc1cccc(Nc2nc(-c3ccc(Cl)cc3)nc3ccccc23)c1C` [AMR.365] has an IC50 of over 200 µM.
For `O=[N+]([O-])c1ccc(F)c(Nc2nc(-c3ccc(Cl)cc3)nc3ccccc23)c1` [AMR.366], the IC50 was over 200 µM.
With `Clc1ccc(-c2nc(NCCCn3ccnc3)c3ccccc3n2)cc1` [AMR.367] the IC50 was over 200 µM.
For `CN(C)c1ccc(Nc2nc(-c3ccc(Cl)cc3)nc3ccccc23)cc1` [AMR.368], the IC50 was 33.7 µM.
`Cc1ccc(S(=O)(=O)NNc2nc(-c3ccc(Cl)cc3)nc3ccccc23)cc1` [AMR.370] was tested, and the IC50 was over 200 µM.
Work on `Cn1nnc2cc(Nc3nc(-c4cccnc4)nc4ccccc34)ccc21` [AMR.372] yielded an IC50 of 6.4 µM.
For `Cn1nnc2cc(Nc3nc(-c4ccncc4)nc4ccccc34)ccc21` [AMR.373], the IC50 was 17.3 µM.
With `Cn1nnc2cc(Nc3nc(-c4ccc(Cl)cc4)nc4ccccc34)ccc21` [AMR.374] the IC50 was 6.6 µM.
With `CN(C)c1ccc(Nc2nc(-c3cccnc3)nc3ccccc23)cc1` [AMR.378] the IC50 was over 200 µM.
`CN(C)c1cccc(Nc2nc(-c3cccnc3)nc3ccccc23)c1` [AMR.379] showed an IC50 of 217 µM.
Work on `CN(C)c1cccc(Nc2nc(-c3ccc(Cl)cc3)nc3ccccc23)c1` [AMR.380] yielded an IC50 of 157 µM.
For `CN(C)c1cccc(Nc2nc(-c3ccncc3)nc3ccccc23)c1` [AMR.381], the IC50 was 130 µM.
`CCOC(=O)c1ccc(Nc2nc(-c3ccc(Cl)cc3Cl)nc3ccccc23)cc1` [AMR.390] was tested, and the IC50 was over 200 µM.
`O=[N+]([O-])c1ccc(F)c(Nc2nc(-c3ccc(Cl)cc3Cl)nc3ccccc23)c1` [AMR.391] gave an IC50 of over 200 µM.
Compound `Clc1ccc(-c2nc(NCCCn3ccnc3)c3ccccc3n2)c(Cl)c1` [AMR.392] has an IC50 of over 200 µM.
In the case of `Clc1ccc(-c2nc(Nc3ccc4[nH]nnc4c3)c3ccccc3n2)c(Cl)c1` [AMR.393], the IC50 is reported as 2 µM.
Work on `COc1ccc(Nc2nc(-c3ccc(Cl)cc3Cl)nc3ccccc23)cc1OC` [AMR.395] yielded an IC50 of 121 µM.
Compound `Clc1ccc(-c2nc(Nc3cc(Cl)ccc3Cl)c3ccccc3n2)c(Cl)c1` [AMR.396] has an IC50 of over 200 µM.
`Fc1ccc(Nc2nc(-c3ccc(Cl)cc3Cl)nc3ccccc23)cc1` [AMR.397] was tested, and the IC50 was over 200 µM.
`Cc1ccc(S(=O)(=O)NNc2nc(-c3ccccc3Cl)nc3ccccc23)cc1` [AMR.400] showed an IC50 of over 200 µM.
`Cn1nnc2cc(Nc3nc(-c4ccc(Cl)cc4Cl)nc4ccccc34)ccc21` [AMR.401] was tested, and the IC50 was 41.8 µM.
Work on `CN(C)c1ccc(Nc2nc(-c3ccc(Cl)cc3Cl)nc3ccccc23)cc1` [AMR.402] yielded an IC50 of 26.7 µM.
`CN(C)c1cccc(Nc2nc(-c3ccc(Cl)cc3Cl)nc3ccccc23)c1` [AMR.403] showed an IC50 of 41.1 µM.
With `O=[N+]([O-])c1ccc(F)c(Nc2nc(-c3ccccn3)nc3ccccc23)c1` [AMR.416] the IC50 was 2.3 µM.
Compound `Cn1nnc2cc(Nc3nc(-c4ccccn4)nc4ccccc34)ccc21` [AMR.421] has an IC50 of 33.7 µM.
Work on `c1ccc(-c2nc(Nc3ccc4[nH]nnc4c3)c3ccccc3n2)nc1` [AMR.422] yielded an IC50 of 3.2 µM.
`O=[N+]([O-])c1cc(F)ccc1Nc1nc(-c2cccnc2)nc2ccccc12` [AMR.426] was tested, and the IC50 was 14.5 µM.
`Fc1ccc(Cl)cc1Nc1nc(-c2cccnc2)nc2ccccc12` [AMR.427] showed an IC50 of 16.5 µM.
`O=[N+]([O-])c1ccc(-c2nc(Nc3cc([N+](=O)[O-])ccc3F)c3ccccc3n2)cc1` [AMR.428] showed an IC50 of 115 µM.
Work on `O=[N+]([O-])c1ccc(-c2nc(Nc3ccc4[nH]nnc4c3)c3ccccc3n2)cc1` [AMR.429] yielded an IC50 of 2.4 µM.
Work on `Cn1nnc2cc(Nc3nc(-c4ccc([N+](=O)[O-])cc4)nc4ccccc34)ccc21` [AMR.437] yielded an IC50 of 50.9 µM.
For `O=[N+]([O-])c1ccc(F)c(Nc2nc(-c3ccc(C(F)(F)F)cc3)nc3ccccc23)c1` [AMR.444], the IC50 was over 200 µM.
Compound `FC(F)(F)c1ccc(-c2nc(Nc3ccc4[nH]nnc4c3)c3ccccc3n2)cc1` [AMR.445] has an IC50 of 53.2 µM.
For `Cn1nnc2cc(Nc3nc(-c4ccc(C(F)(F)F)cc4)nc4ccccc34)ccc21` [AMR.446], the IC50 was 28.2 µM.
`O=[N+]([O-])c1cc(Nc2nc(-c3ccncc3)nc3ccccc23)ccc1F` [AMR.449] showed an IC50 of 2.9 µM.
`O=[N+]([O-])c1cc(F)ccc1Nc1nc(-c2ccncc2)nc2ccccc12` [AMR.450] showed an IC50 of 169 µM.
For `Fc1ccc(Cl)cc1Nc1nc(-c2ccncc2)nc2ccccc12` [AMR.451], the IC50 was 15.1 µM.
With `Fc1cc(Nc2nc(-c3ccncc3)nc3ccccc23)c(F)cc1Br` [AMR.455] the IC50 was 15.3 µM.
`O=[N+]([O-])c1ccc(O)c(Nc2nc(-c3ccncc3)nc3ccccc23)c1` [AMR.456] gave an IC50 of 10.2 µM.
`Cc1ccc(Nc2nc(-c3ccncc3)nc3ccccc23)c(O)c1` [AMR.457] showed an IC50 of over 200 µM.
For `O=[N+]([O-])c1cc(Nc2nc(-c3ccncc3)nc3ccccc23)ccc1O` [AMR.458], the IC50 was 5.8 µM.
`O=[N+]([O-])c1cccc(O)c1Nc1nc(-c2ccncc2)nc2ccccc12` [AMR.461] showed an IC50 of 57.4 µM.
For `O=C(O)c1ccc(Nc2nc(-c3ccncc3)nc3ccccc23)c(O)c1` [AMR.462], the IC50 was 15.2 µM.
Compound `Cn1nc2ccc(Nc3nc(-c4ccncc4)nc4ccccc34)cc2n1` [AMR.464] has an IC50 of 97.4 µM.
Work on `CNc1ccc([N+](=O)[O-])cc1Nc1nc(-c2ccncc2)nc2ccccc12` [AMR.466] yielded an IC50 of 4.7 µM.
`CN(c1ccc2c(c1)nnn2C)c1nc(-c2ccncc2)nc2ccccc12` [AMR.471] showed an IC50 of over 200 µM.
In the case of `O=[N+]([O-])c1ccc(F)c(Nc2ncnc3ccccc23)c1` [AMR.475], the IC50 is reported as over 200 µM.
`c1ccc2c(Nc3ccc4[nH]nnc4c3)ncnc2c1` [AMR.476] was tested, and the IC50 was 137 µM.
`O=[N+]([O-])c1ccc(O)c(Nc2nc(-c3cccnc3)nc3ccccc23)c1` [AMR.481] showed an IC50 of 2.1 µM.
In the case of `Fc1cc(Nc2nc(-c3cccnc3)nc3ccccc23)c(F)cc1Br` [AMR.483], the IC50 is reported as 16.1 µM.
Compound `Cc1ccc(Nc2nc(-c3cccnc3)nc3ccccc23)c(O)c1` [AMR.484] has an IC50 of 179 µM.
In the case of `O=[N+]([O-])c1cccc(O)c1Nc1nc(-c2cccnc2)nc2ccccc12` [AMR.492], the IC50 is reported as 19.7 µM.
`O=C(O)c1ccc(Nc2nc(-c3cccnc3)nc3ccccc23)c(O)c1` [AMR.493] showed an IC50 of 30 µM.
For `CCOC(=O)c1ccc(Nc2cc(-c3cccnc3)nc3ccccc23)cc1` [AMR.504], the IC50 was 76 µM.
Compound `Cn1nnc2cc(Nc3cc(-c4cccnc4)nc4ccccc34)ccc21` [AMR.505] has an IC50 of 59.8 µM.
With `CN(C)c1cccc(-c2nc(Nc3cc([N+](=O)[O-])ccc3F)c3ccccc3n2)c1` [AMR.508] the IC50 was over 200 µM.
`CN(C)c1cccc(-c2nc(Nc3ccc4c(c3)nnn4C)c3ccccc3n2)c1` [AMR.509] gave an IC50 of over 200 µM.
With `CN(C)c1ccc(-c2nc(Nc3cc([N+](=O)[O-])ccc3F)c3ccccc3n2)cc1` [AMR.511] the IC50 was over 200 µM.
Work on `CN(C)c1ccc(-c2nc(Nc3ccc4c(c3)nnn4C)c3ccccc3n2)cc1` [AMR.512] yielded an IC50 of 30.8 µM.
